Entries after “also recorded” stand apart in the source; their conditions may differ.
Columns and labels:
PKB Ser473 kinase [1] = experiment: Ser473 kinase activity (FSY/FAY peptide assay) in subcellular fractions of treated serum-starved HEK293 cells; format: cell-based, human; details: 0.1 microM insulin, pervanadate 0.1 mM, 10 mins, LY294002 50 microM, 30 mins, versus basal
Method: HEK 293 cells transiently transfected with the PKB constructs were serum starved, stimulated or not with 0.1 mM pervanadate for 10 min at 37° C., and subcellular fractions were generated. Briefly, HEK 293 cells were washed once in ice-cold phosphate-buffered saline, and scraped in ice-cold fractionation buffer containing 20 mM HEPES-NaOH, pH 7.4, 250 mM sucrose, phosphatase inhibitors (10 mM sodium fluoride, 1 mM sodium pyrophosphate, 0.1 mM sodium orthovanadate, 2 μM microcystin LR [Alexis]), and protease inhibitors (1 mM PMSF and 1 mM benzamidine). After homogenization either by 10 passes through a 26-gauge needle, or by using a Kinematica homogenizer (10 strokes on speed 2 followed by 30 strokes on speed 10), subcellular fractions were prepared as previously described (Hill and Hemmings, 2002, Methods Enzymol 345: 448-463). The plasma membrane pellets were resuspended in 50 mM Tris-HCl (pH7.4) containing protease and phosphatase inhibitors as described above. Protein concentration of the subcellular fractions was determined by the Bradford method (Bio-Rad), using bovine serum albumin as standard. […]
Next, it was examined if membrane-associated Ser473 kinase activity was dependent on PI3-kinase signalling. […] PM fractions were assayed for Ser473 kinase activity, and also analyzed by immunoblotting for phospho-PKB and total PKB.

[2] = test system: PKB phosphorylation on Thr308 and Ser473; experiment: Immunoblotting of plasma membrane fractions for phospho-PKB and total PKB after cell treatment; format: cell-based, human; details: serum-starved HEK293 cells, immunoblot; for PKB phosphorylation on Thr308 and Ser473: 0.1 microM insulin, pervanadate 0.1 mM, 10 mins
Method: The presence of PKB in each fraction was determined by immunoblotting with an anti-HA antibody (12CA5). In addition, the phosphorylation status of PKB in each of the fractions was assessed by immunoblotting with phospho-specific PKB antibodies after immunoprecipitation with the HA antibody. Briefly, following SDS-PAGE, proteins were transferred onto Immobilon-P membranes (Millipore). Non-specific signals were blocked by incubating the membrane in TBST buffer (50 mM Tris-HCl, pH 7.4, 150 mM NaCl, 0.1% Tween-20) containing 5% skim milk for 1 hour at room temperature. Incubation with antibodies was performed in TBST for phospho-specific antibodies, TBST containing 1% skim milk for polyclonal antibodies and TBST containing 5% skim milk for monoclonal antibodies, at 4° C. overnight. Antibodies specific for PKB phosphorylated on Thr308 are commercially available (Cell Signalling Technologies). Antibodies specific for PKB phosphorylated on Ser473 was produced and purified as previously described (Hill and Hemmings, 2002, Methods Enzymol 345: 448-463). Pan-PKB antibody has been previously described (Jones et al., 1991, Proc Natl Acad Sci USA 88: 4171-4175).
Next, it was examined if membrane-associated Ser473 kinase activity was dependent on PI3-kinase signalling. Serum-starved HEK293 cells were treated with 0.1 microM insulin, the insulin mimetic pervanadate (0.1 mM, 10 mins.), the PI 3-kinase inhibitor LY294002 (50 microM, 30 mins.), or left untreated. PM fractions were assayed for Ser473 kinase activity, and also analyzed by immunoblotting for phospho-PKB and total PKB.

PKBα = experiment: Subcellular fractionation of HEK 293 cells transfected with PKB constructs, anti-HA immunoblotting; format: cell-based, human; details: 0.1 mM pervanadate, 10 min, 37° C., serum-starved transfected HEK 293 cells
Text: In order to characterize and purify the PKB Ser473 kinase, we reasoned that the kinase might be constitutively active at the plasma membrane (PM). To this end, we developed a subcellular fractionation protocol to generate fractions enriched in the PM. To determine the efficacy of the procedure, the fractionation behavior of products of two PKB constructs was examined: hemagglutinin (HA) tagged PKBα (HA-PKBα) and HA-PKBα containing a myristoylation/palmitylation signal (m/p-HA-PKBα).
HEK 293 cells transiently transfected with the PKB constructs were serum starved, stimulated or not with 0.1 mM pervanadate for 10 min at 37° C., and subcellular fractions were generated. […] Protein concentration of the subcellular fractions was determined by the Bradford method (Bio-Rad), using bovine serum albumin as standard. […]
The presence of PKB in each fraction was determined by immunoblotting with an anti-HA antibody (12CA5). In addition, the phosphorylation status of PKB in each of the fractions was assessed by immunoblotting with phospho-specific PKB antibodies after immunoprecipitation with the HA antibody. […]

PKB Ser473 kinase [3] = details: second kinase activity, taken to be the PKB Ser473 kinase; 0-100 microM tested
PDK1 = target: T1, PDK1 (Homo sapiens, UniProt O15530); details: literature: Hill et al. 2001; cited from earlier work
T1 sequence (O15530 1-556): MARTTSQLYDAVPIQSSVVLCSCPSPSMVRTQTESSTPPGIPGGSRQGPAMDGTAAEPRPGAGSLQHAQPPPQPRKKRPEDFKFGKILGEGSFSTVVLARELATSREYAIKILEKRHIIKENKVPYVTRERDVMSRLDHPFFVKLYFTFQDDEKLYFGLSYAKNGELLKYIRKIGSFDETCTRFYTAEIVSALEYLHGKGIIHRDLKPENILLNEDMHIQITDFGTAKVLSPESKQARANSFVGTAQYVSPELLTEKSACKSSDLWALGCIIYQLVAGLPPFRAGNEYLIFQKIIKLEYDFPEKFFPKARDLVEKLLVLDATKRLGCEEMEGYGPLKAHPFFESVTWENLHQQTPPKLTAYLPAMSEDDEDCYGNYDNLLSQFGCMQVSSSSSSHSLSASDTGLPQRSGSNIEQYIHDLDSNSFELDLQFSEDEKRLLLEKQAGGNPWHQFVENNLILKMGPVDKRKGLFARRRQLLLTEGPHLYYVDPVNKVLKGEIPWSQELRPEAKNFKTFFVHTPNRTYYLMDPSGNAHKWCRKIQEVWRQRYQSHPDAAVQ

[4] = test system: PKB Ser473 phosphorylation; details: literature: Hill et al. 2001; Alessi et al. 1996; cited from earlier work

With pervanadate the “Ser473 kinase activity in plasma membrane fractions” value (PKB Ser473 kinase [1]) was “neither stimuli increased Ser473 kinase activity above basal levels”, the “PKB phosphorylation on Thr308 and Ser473” value [2] was “induced PKB phosphorylation on both Thr308 and Ser473” and the “Potency as activator of PKB phosphorylation compared with insulin” value [2] was “more potent activator of PKB phosphorylation than insulin”. The “Translocation of membrane-targeted m/p-HA-PKBα” value (PKBα) was “no translocation was observed” and the “Translocation of wild type HA-PKBα to the plasma membrane fraction” value (PKBα) was “A portion of PKBα translocated to the PM fraction”.
For insulin, the “Ser473 kinase activity in plasma membrane fractions” value (PKB Ser473 kinase [1]) was “neither stimuli increased Ser473 kinase activity above basal levels” and the “PKB phosphorylation on Thr308 and Ser473” value [2] was “induced PKB phosphorylation on both Thr308 and Ser473”.
In the case of CN[C@@H]1C[C@H]2O[C@@](C)([C@@H]1OC)n1c3ccccc3c3c4c(c5c6ccccc6n2c5c31)C(=O)NC4 [staurosporine], the “Staurosporine concentration up to which the kinase activity is insensitive” value (PKB Ser473 kinase [3]) is listed as greater than 100 µM, the “Effect on PDK1” value (PDK1) is listed as “inhibits PDK1” and the “Sensitivity of insulin-stimulated PKB Ser473 phosphorylation to the inhibitor” value [4] is listed as “staurosporine-insensitive; also recorded: not sensitive”.

— patent US7794995B2, “Purified PKB Ser 473 kinase and uses thereof” (priority 2002, dated 2010)
